According to patent publication US12410152B2, “Oxazole and thioazole-type cullin ring ubiquitin ligase compounds and uses thereof” (Proxygen GmbH, priority 2019, dated 2025):

Legend:
[1] = target: T1, DCAF15 (Homo sapiens, UniProt Q66K64); test: DCAF15 stabilization, live-cell HiBit/LgBit bioluminescence screen; format: cell-based; settings: 10 μM, 293T cells expressing HiBit-DCAF15
T1 construct: expressed in transfected cells; host or cells: 293T cells, DCAF15 knocked out, additionally transduced with LgBit
From the text: Subsequently, in this context, the E3 ligase substrate receptor (SR) stabilization approach was employed in order to identify novel chemical matter that can bind and chemically re-program the substrate receptor DCAF15. To be able to screen a collection of around 8000 small-molecules, a cellular system was developed that enabled monitoring of DCAF15 levels in live cells in multi-well format. To that end, DCAF15 was first knocked out in 293T cells via CRISPR/Cas9 technology. Then, DCAF15 was stably expressed as a HiBit® fusion protein in these cells. After further transducing these cells with LgBit, this allowed live-cell tracing of DCAF15 levels in 384 well format by measuring bioluminescence (FIG. 13).
In brief, cells were seeded at a concentration of 250′000 cells/ml in DMEM+10% FCS+25 mM Hepes. The luciferase substrate Endurazine was added at concentrations recommended by the manufacturer. Small-molecules were added at a concentration of 10 μM, and their effect on DCAF15 levels was assayed by continuous bioluminescent imaging (measurements were taken every 120 minutes). In total, 8000 compounds were tested.
The known DCAF15 molecular glue indisulam was used as a positive control. In brief, indisulam is known to act as a DCAF15-dependent molecular glue that binds DCAF15 and induced proximity between DCAF15 and RBM39, leading to the degradation of the latter. […]

[2] = target: T2, RBM39 (Homo sapiens, UniProt Q14498+Q66K64); test: RBM39 levels by Western blot, WT vs DCAF15-deficient cells; format: cell-based; settings: KBM7 12 or 16 h (dCeMM-1); 293T 10 h (dCeMM-2)
T2 construct: endogenous in cells; host or cells: KBM7 (WT or DCAF15 knockout) and 293T (DCAF15-HiBit or knockout)
Protocol: The known DCAF15 molecular glue indisulam was used as a positive control. In brief, indisulam is known to act as a DCAF15-dependent molecular glue that binds DCAF15 and induced proximity between DCAF15 and RBM39, leading to the degradation of the latter. […] Given the structural similarity to indisulam, it was assayed if the two new test compounds would similarly lead to the degradation of RBM39 in a DCAF15-dependent manner. Towards that end, their effect on RBM39 levels in wildype cells as well as cells deficient for DCAF15 levels was tested. KBM7 (WT or knockout, FIG. 15) as well as 293T cells (DCAF15-HiBit overexpression vs knockout, see FIG. 16) were tested in various conditions of dCEMM.1 and/or dCEMM.2, comparing their effect to indisulam.
PBS-washed cell pellets were lysed in 50 mM Tris pH 7.9, 8M Urea and 1% CHAPS and incubated with shaking at 4° C. for at least 30 min. 20 μg of supernatants were run and transferred for detection. […]

[3] = system: KBM7 cells (DCAF15 knockout); test: Cell viability, KBM7 DCAF15 knockout vs WT (72 hour treatment); format: cell-based, human
Protocol: FIG. 18. (A) Cellular viability of KBM7 cells (WT or UBE2M mutant) after treatment with dCeMM.1. (72 hour treatment) (B) cellular viability of KBM7 cells (WT or DCAF15 knockout) after dose-ranging treatment with dCeMM.1 (72 hour treatment).
In another experiment, 2000 compounds were screened in a set up comparing their anti-proliferative effect in KBM7 cells modified in the UBE2M gene to wildtype KBM7 cells (FIG. 3). The PROTAC® ARV-771 was taken as positive control. Of note, among the identified hits was also dCeMM.1, which was similarly identified via the aforementioned DCAF15 restabilization assay.

[4] = system: UBE2M mutant KBM7 cells; test: cells; format: cell-based; settings: KBM7 UBE2M mutant vs WT
Protocol: KBM7 cells with the specified genetic backgrounds were grown in IMDM supplemented with 10% FBS and 1% penicillin/streptomycin (pen/strep). AsPC1, HCT116, NCI-H446 and 293T cells were grown in DMEM 10% FBS and 1% pen/strep. MV4; 11, Jurkat and Be (2) C cells were grown in RPMI 10% FBS 1% pen/strep. KBM7, AsPC1 and HCT116 cells expressing Cas9 were generated using the plasmid Lenti_Cas9_Blasti (Addgene #52962). The lentiviral plasmid lentiGuide-Puro (Addgene #52963) was used to express sgRNAs against the genes UBE2M (in KBM7-Cas9, AsPC1-Cas9 and HCT116-Cas9 cells), UBE2G1 (in KBM7-Cas9 cells) and […] (in KBM7-Cas9 cells). The lentiviral plasmid lentiGuide-Puro-IRES-mCherry (modified from Addgene #52963) was used to express sgRNAs against CUL4A (in KBM7-Cas9 cells). The lentiviral plasmid pLenti-PGK-Hygro-DEST-UBE2M was generated by Gateway cloning (empty destination vector Addgene #19066), and used to generate UBE2M^resc KBM7 cells. […]
Following this observation, it was rationalized that novel small molecule degraders can be identified in an unbiased manner, simply by searching for compounds that lose activity in the absence of UBE2M. 2000 small molecules, mostly of unknown function/target, were tested for their antiproliferative effects in human leukemia cells (KBM7). These cells were either transduced with a control sgRNA (KBM7WT), or with an sgRNA targeting UBE2M, leading to a hypomorph (deletion of six amino acids) with a functional impairment (UBE2Mmut).
Finally, a total of structurally similar analogs was tested to unravel structure-activity relationship of the identified molecules. To that end, their anti-cancer activity was assayed in WT cells, as well as KBM7 cells deficient in genes identified in the genome-wide CRISPR screens (UBE2M, CUL4B, UBE2G1). Moreover, the compounds were also tested in AsPC1 pancreatic cancer cells (WT or UBE2Mmut), MV4; 11 and Jurkat leukemia cells, Be (2) C neuroblastoma cells, and NCI-H446 lung cancer cells (Table 3 at the end of this document)
KBM7^WT, mutant KBM7 clones (UBE2M^mut, UBE2M^resc, UBE2G1^mut CUL4A^mut, CUL4B^mut), and 3-day doxycycline pretreated KBM7^iCas9_sgDDB1 cells were seeded at a cell density of 50,000 cells/mL in 96-well plates with DMSO or drug, in triplicates. Drugs used: IC020772.1/IC020772.1X, IC021313.2/IC021313.2X, T6938051/T6938051X or THZ531. Cells were treated for 3 days, after which cell viability was assessed according to manufacturer's protocol (CellTiter Glo, Promega G7570). Survival curves and EC50 values were calculated by best-fit analysis of the log 10 drug concentration to fold change of drug-treated cells over DMSO-treated cells. All survival assays included technical triplicates per sample, per experiment.

[5] = target: T3, CCNK and DDB1 (Homo sapiens, UniProt O75909+Q16531); test: Photo-affinity probe (IC021313.2^PAP) pulldown in intact KBM7 cells; format: binding; settings: UV crosslink, competed by THZ531
T3 construct: endogenous in cells; host or cells: KBM7 cells (lysate in A24, intact cells in A25)
Protocol: Regarding the second strategy, an alternative method for drug-target enrichment that is based on cellular treatment with IC021313.2^PAP, a functionalized analog of IC021313.2 containing a photoactive diazirine moiety and an alkyne handle was performed (FIG. 20 d). Following cellular treatment with IC021313.2^PAP, cells were UV crosslinked, lysed and the alkyne handle in IC021313.2^PAP was biotinylated for subsequent immobilization on streptavidin beads and identification of drug-interacting proteins via immunoblots. […] Also in this setup, covalently saturating the CDK12/13 binding site with THZ-531 competed with IC021313.2^PAP enrichment (FIG. 20 e, f). Collectively, both strategies indicate simultaneous engagement of the destabilized CCNK and the CRL4 adaptor protein DDB1 in a CDK12/13-dependent manner.
IC021313.2^NH2 was conjugated to a constant side chain consisting of a photosensitive diazirine group and an alkyne handle.
20 million KBM7^WT cells per condition were pre-treated with either DMSO or 100 μM THZ531 (competition condition) for 1h in the presence of 10 μM carfilzomib (Selleckchem, S2853) in serum-free IMDM medium (3 ml/20 million cells/10 cm dish). Then, cells were treated with 10 μM IC020772.1^PAP for 1h. […] Eluates were analyzed by WB. Quantification was performed with ImageJ.

[6] = target: T3, CCNK and DDB1; test: Drug affinity chromatography with IC021313.2^NH2-coupled beads in KBM7 lysates; format: binding; settings: KBM7 whole cell lysates; competed by THZ531 100 μM
From the text: Regarding the first strategy, a variant of IC021313.2 associated with a free amine and named IC021313.2^NH2 allowed immobilizing IC021313.2^NH2 on sepharose beads, and purification of interacting proteins out of whole cell lysates (FIG. 20 a, b). […] Treating lysates with THZ531 and thus covalently blocking the active sites on CDK12/13 prevented DDB1 and CCNK enrichment via the IC021313.2^NH2 resin. This is in line with the fact that cellular co-treatment with THZ531 was able to abrogate drug-induced CCNK degradation (FIG. 19 d).
100 μL NHS-Activated Sepharose 4 Fast Flow (GE Life Sciences, 17090601) per condition were washed with 500 μL DMSO 3 times (3 min 800 rpm centrifugation at RT). Beads were resuspended in 50 μL DMSO and 2.5 μL IC021313.2^NH2 10 mM and 0.75 μL TEA (Sigma-Aldrich, T0886) were added. […]
200 million KBM7 cells were resuspended in 2 mL lysis buffer ([…] pH 7.5, 0.2% NP-40, 5% glycerol, 1.5 mM MgCl2, 100 mM NaCl, 1 mM EDTA) supplemented with protease inhibitors (Thermo Scientific, 78437) and benzonase (Merck, US170746-370746) and incubated on ice for 30 min. After centrifugation (full-speed, 4° C., 30 min) supernatant was transferred to a new tube and extracted protein measured with BCA (Fisher Scientific, 23225). […]

T3 sequence (O75909 whole entry): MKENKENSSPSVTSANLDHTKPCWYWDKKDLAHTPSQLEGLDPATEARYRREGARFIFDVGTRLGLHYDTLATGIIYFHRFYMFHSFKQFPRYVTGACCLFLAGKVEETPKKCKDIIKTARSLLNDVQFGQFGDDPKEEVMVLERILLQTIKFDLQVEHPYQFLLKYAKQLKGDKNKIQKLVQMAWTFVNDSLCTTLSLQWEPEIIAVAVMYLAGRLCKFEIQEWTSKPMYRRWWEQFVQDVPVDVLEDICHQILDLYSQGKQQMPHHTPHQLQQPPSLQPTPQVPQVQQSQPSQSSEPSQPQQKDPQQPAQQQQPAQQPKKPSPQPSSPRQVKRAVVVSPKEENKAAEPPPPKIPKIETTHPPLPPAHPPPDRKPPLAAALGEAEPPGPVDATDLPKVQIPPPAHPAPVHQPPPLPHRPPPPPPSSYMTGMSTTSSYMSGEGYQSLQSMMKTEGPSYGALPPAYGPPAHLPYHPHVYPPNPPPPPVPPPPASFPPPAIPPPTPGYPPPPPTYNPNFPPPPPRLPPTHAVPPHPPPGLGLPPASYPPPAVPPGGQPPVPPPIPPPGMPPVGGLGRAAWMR
T3 sequence (Q16531 2-1140 limits assumed): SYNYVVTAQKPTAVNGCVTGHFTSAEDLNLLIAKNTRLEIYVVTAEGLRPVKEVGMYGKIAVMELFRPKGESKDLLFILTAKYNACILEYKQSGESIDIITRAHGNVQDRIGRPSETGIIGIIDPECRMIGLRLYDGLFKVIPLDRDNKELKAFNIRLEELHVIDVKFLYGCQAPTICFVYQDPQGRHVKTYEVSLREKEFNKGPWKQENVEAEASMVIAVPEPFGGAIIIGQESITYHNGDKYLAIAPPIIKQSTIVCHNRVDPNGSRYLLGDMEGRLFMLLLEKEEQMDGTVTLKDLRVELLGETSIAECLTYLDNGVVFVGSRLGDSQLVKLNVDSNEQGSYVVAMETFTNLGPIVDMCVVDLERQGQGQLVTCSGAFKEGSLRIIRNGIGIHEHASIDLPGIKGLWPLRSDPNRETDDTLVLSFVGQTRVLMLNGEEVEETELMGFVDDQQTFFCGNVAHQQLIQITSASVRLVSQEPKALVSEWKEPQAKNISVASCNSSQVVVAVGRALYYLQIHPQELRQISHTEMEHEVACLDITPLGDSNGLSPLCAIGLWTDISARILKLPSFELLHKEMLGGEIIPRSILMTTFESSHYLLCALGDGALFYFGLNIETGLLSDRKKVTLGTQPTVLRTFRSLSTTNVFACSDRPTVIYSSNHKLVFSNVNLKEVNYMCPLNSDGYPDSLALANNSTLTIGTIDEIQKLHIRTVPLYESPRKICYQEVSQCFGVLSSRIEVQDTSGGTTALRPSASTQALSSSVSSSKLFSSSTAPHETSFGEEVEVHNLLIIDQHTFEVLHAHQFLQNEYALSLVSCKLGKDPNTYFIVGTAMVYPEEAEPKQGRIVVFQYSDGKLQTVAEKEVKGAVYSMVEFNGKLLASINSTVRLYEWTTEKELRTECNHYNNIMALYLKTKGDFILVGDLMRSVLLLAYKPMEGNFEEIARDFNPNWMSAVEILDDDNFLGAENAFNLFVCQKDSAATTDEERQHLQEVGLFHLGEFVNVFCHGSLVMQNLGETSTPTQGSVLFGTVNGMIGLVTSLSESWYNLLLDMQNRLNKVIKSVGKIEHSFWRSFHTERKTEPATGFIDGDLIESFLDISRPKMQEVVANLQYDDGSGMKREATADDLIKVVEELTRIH
T3 sequence (Q9NYV4 whole entry partner): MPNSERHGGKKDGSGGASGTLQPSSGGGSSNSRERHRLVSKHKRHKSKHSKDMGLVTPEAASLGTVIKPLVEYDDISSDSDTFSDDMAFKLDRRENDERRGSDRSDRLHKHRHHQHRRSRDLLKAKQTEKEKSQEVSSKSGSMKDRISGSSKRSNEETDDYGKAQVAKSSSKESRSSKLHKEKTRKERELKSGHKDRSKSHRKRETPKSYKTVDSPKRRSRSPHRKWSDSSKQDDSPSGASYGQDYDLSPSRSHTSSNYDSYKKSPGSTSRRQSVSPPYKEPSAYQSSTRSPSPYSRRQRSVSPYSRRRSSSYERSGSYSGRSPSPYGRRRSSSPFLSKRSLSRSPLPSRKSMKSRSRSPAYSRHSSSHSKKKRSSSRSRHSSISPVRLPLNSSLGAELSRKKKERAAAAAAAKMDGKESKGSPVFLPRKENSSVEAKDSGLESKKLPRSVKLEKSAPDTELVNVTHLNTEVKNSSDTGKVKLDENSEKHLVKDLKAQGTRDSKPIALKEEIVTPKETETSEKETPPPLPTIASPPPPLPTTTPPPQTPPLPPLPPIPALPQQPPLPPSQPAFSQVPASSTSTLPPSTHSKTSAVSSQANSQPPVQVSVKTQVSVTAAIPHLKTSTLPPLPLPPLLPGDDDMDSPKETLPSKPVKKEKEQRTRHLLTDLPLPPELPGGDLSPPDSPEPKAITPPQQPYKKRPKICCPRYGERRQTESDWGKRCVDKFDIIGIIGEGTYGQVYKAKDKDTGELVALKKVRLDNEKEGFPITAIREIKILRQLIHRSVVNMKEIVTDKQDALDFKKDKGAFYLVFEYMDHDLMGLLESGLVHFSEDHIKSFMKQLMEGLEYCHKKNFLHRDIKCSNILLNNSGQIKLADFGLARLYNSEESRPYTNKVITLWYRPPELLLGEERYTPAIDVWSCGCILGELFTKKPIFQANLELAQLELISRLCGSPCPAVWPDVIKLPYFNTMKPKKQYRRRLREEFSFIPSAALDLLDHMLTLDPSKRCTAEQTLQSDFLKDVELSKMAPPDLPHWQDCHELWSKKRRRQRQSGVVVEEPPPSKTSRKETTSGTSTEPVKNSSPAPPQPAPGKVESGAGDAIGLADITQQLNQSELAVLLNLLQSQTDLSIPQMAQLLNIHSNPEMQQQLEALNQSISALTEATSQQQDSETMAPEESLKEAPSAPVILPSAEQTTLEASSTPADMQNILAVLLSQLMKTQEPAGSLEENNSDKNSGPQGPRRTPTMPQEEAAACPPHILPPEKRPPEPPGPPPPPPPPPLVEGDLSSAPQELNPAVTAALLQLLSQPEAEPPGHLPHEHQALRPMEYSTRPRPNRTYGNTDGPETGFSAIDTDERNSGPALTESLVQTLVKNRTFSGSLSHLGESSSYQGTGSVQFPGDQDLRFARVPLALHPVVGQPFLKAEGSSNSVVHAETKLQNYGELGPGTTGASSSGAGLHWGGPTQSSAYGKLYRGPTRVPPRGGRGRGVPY
T1 sequence (Q66K64 whole entry): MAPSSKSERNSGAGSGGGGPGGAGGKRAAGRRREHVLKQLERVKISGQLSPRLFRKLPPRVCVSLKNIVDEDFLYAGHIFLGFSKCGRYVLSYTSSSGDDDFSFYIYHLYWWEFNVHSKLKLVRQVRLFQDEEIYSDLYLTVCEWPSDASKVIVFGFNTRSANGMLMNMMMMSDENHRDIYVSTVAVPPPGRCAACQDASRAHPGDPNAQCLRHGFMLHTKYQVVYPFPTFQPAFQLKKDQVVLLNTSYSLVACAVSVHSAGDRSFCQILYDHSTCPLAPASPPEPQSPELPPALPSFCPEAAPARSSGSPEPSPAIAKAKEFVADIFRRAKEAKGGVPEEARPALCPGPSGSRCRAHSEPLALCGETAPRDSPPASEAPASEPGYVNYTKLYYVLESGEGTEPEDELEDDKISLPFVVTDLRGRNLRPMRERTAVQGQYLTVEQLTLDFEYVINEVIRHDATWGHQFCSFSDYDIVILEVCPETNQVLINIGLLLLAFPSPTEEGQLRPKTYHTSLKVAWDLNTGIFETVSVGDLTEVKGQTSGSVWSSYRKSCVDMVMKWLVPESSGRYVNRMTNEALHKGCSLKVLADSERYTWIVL
T2 sequence (Q14498 2-530 limits assumed): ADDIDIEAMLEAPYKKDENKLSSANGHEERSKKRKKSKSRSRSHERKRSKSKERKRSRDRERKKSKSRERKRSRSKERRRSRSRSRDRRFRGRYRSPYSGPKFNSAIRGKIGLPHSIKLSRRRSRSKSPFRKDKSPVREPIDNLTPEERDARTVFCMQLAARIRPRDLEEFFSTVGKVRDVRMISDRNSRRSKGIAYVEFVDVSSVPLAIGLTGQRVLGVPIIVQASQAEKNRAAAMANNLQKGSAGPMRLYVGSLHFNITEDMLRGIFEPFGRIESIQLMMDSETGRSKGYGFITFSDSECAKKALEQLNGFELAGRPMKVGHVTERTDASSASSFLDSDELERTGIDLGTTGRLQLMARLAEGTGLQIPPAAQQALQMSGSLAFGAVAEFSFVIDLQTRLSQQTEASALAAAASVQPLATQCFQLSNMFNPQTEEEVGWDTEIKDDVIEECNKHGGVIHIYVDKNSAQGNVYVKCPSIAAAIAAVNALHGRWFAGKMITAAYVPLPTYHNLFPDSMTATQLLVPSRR
T2 sequence (Q66K64 whole entry): as the sequence (Q66K64 whole entry) above
T2 sequence (Q16531 2-1140 partner limits assumed): as the sequence (Q16531 2-1140 limits assumed) above

With `Cc1ccc(S(=O)(=O)N/N=C/c2cc(Br)ccc2O)cc1` [dCeMM.1] the “DCAF15 stabilization (relative luciferase signal over time)” value [1] was “significant DCAF15 stabilization”, the “RBM39 destabilization (Western blot), DCAF15-dependent” value [2] was “significant destabilization of RBM39 levels” and the “sensitivity upon inactivation of DCAF15” value [3] was “pronounced resistance”. The “anti-proliferative effect upon mutation of UBE2M” value [4] was “loses anti-proliferative activity”.
`C#CCCC1(CCC(=O)Nc2ccc3[nH]c(SCC(=O)Nc4ccc(Cl)cn4)nc3c2)N=N1` [IC021313.2^PAP] was tested, and the “proteins enriched in photo-affinity pulldown (immunoblot)” value [5] was “DDB1 and CCNK were enriched in the eluates”.
`Nc1ccc2[nH]c(SCC(=O)Nc3ccc(Cl)cn3)nc2c1` [IC021313.2^NH2] was tested, and the “interacting proteins in bead pulldown (immunoblot)” value [6] was “both CCNK and DDB1 as interacting proteins”.
